Measured values as given in BindingDB's records for doi:10.1016/j.bioorg.2012.08.003 (North-West University, 2012).

How the values were obtained:
[1] = target: T1, Amine oxidase [flavin-containing] B (Homo sapiens, UniProt P27338); test: Inhibition Assay; details: pH 7.4; 37 °C
T1 sequence (P27338 whole entry): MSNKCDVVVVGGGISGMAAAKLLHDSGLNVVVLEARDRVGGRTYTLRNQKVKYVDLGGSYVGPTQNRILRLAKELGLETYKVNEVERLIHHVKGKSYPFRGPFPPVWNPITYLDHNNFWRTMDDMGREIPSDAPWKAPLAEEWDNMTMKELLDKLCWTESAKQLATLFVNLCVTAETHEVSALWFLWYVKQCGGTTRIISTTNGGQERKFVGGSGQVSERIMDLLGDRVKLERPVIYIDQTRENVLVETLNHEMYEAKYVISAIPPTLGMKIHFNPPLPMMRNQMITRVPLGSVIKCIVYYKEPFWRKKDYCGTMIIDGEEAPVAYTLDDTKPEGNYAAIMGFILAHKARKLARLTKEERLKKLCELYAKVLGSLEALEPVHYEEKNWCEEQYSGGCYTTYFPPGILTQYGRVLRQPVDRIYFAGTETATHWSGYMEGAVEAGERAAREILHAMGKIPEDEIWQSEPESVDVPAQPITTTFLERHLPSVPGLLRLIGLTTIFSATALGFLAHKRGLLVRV
Excerpt: (§1) Inhibition studies using recombinant human MAO-A and MAO-B that were obtained from commercial sources (Sigma-Aldrich).

[2] = target: T2, Amine oxidase [flavin-containing] A (Homo sapiens, UniProt P21397); test: Inhibition Assay; details: pH 7.4; 37 °C
T2 sequence (P21397 whole entry): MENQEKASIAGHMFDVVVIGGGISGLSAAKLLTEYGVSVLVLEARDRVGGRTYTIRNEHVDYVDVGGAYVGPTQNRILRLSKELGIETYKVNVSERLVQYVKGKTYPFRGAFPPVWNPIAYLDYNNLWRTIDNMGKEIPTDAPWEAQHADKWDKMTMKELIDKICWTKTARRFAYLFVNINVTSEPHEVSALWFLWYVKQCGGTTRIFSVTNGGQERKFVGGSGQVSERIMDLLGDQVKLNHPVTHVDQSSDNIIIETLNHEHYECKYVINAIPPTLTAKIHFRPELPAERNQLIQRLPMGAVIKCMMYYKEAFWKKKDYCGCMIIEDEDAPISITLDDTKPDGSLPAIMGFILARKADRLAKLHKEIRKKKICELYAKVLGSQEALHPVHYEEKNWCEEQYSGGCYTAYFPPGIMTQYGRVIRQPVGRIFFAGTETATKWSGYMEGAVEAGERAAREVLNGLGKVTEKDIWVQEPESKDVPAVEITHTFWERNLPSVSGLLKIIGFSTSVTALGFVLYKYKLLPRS
Excerpt: as §1

Row | SMILES | IC50 [1] [nM] | IC50 [2] [nM]
1 | O=c1ccoc2cc(OCc3ccccc3)ccc12 [C7-substituted chromone derivative, 3a] | 85 | 5330
2 | O=c1ccoc2cc(OCCc3ccccc3)ccc12 [C7-substituted chromone derivative, 3b] | 115 | 2190
3 | O=c1ccoc2cc(OCCCc3ccccc3)ccc12 [C7-substituted chromone derivative, 3c] | 121 | 3080
4 | O=c1ccoc2cc(OCc3cccc(Cl)c3)ccc12 [C7-substituted chromone derivative, 3d] |  | 1520
5 | O=c1ccoc2cc(OCc3cccc(Br)c3)ccc12 [C7-substituted chromone derivative, 3f] | 14 | 1730
6 | O=c1ccoc2cc(OCc3cccc(F)c3)ccc12 [C7-substituted chromone derivative, 3h] | 44 | 2100
7 | Cc1cccc(COc2ccc3c(=O)ccoc3c2)c1 [C7-substituted chromone derivative, 3j] | 62 | 8030
8 | N#Cc1cccc(COc2ccc3c(=O)ccoc3c2)c1 [C7-substituted chromone derivative, 3l] | 370 | 784
9 | N#Cc1ccc(COc2ccc3c(=O)ccoc3c2)cc1 [C7-substituted chromone derivative, 3m] | 117 | 1570
10 | O=c1ccoc2cc(OCc3ccc(C(F)(F)F)cc3)ccc12 [C7-substituted chromone derivative, 3n] |  | 1970

The next lines start with the values.

Row | IC50 [1] [nM] | IC50 [2] [nM] | SMILES
11 | 29 | 495 | O=c1ccoc2cc(OCc3ccc(Cl)cc3)ccc12 [C7-substituted chromone derivative, 3e]
12 | 18 | 592 | O=c1ccoc2cc(OCc3ccc(Br)cc3)ccc12 [C7-substituted chromone derivative, 3g]
13 |  | 1170 | O=c1ccoc2cc(OCc3ccc(F)cc3)ccc12 [C7-substituted chromone derivative, 3i]
14 | 75 | 7120 | Cc1ccc(COc2ccc3c(=O)ccoc3c2)cc1 [C7-substituted chromone derivative, 3k]
15 | 317 | 718 | O=c1ccoc2cc(OCCc3ccc(Br)cc3)ccc12 [C7-substituted chromone derivative, 3o]
